Measured values reported in US20100298141A1, “SUBSTITUTED PYRIDINE N-OXIDE HERBICIDES” (E. I. DU PONT DE NEMOURS AND COMPANY, priority 2007, published 2010).

How the values were obtained:
crabgrass = test: Test A pre-/postemergence greenhouse test; format: in vivo, Digitaria sanguinalis; settings: for Plant response rating, Crabgrass, Large: 0 to 100 scale where 0 is no effect and 100 is complete control; for Crabgrass, Large plant response rating: 0 to 100 scale
How it was run: (§1)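 Sowing in loam/sand; same-day pre (directed soil spray) and post (foliar, 1–2 leaf, 2–10 cm) treatment with surfactant-containing non-phytotoxic solvent formulation; ~10 days in greenhouse; eye-scored injury against untreated plants.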

giant foxtail = test: Test A pre-/postemergence greenhouse test; format: in vivo, Setaria faberi; settings: for Plant response rating, Foxtail, Giant: 0 to 100 scale where 0 is no effect and 100 is complete control; for Foxtail, Giant plant response rating: 0 to 100 scale
How it was run: as §1

morningglory [1] = test: Test A pre-/postemergence greenhouse test; format: in vivo, Ipomoea spp.; settings: for Plant response rating, Morningglory: 0 to 100 scale where 0 is no effect and 100 is complete control; for Morningglory plant response rating: 0 to 100 scale
How it was run: as §1

wheat [2] = test: Test A pre-/postemergence greenhouse test; format: in vivo, Triticum aestivum; settings: for Plant response rating, Wheat: 0 to 100 scale where 0 is no effect and 100 is complete control; for Wheat plant response rating: 0 to 100 scale
How it was run: as §1

corn = test: Test A pre-/postemergence greenhouse test; format: in vivo, Zea mays; settings: for Plant response rating, Corn: 0 to 100 scale where 0 is no effect and 100 is complete control; for Corn plant response rating: 0 to 100 scale
How it was run: as §1

Italian ryegrass = test: Test C pre-/postemergence test; format: in vivo, Lolium multiflorum
How it was run: (§2)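 Compounds in a non-phytotoxic solvent with surfactant applied preemergence to seeded pots and, at the same time, postemergence to plants 2–18 cm tall (1- to 4-leaf stage). Paddy tests: pots flooded to 3 cm, compound applied into the water, depth held throughout.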

wheat [3] = test: Test C pre-/postemergence test; format: in vivo, Triticum aestivum
How it was run: as §2

bermudagrass = test: Test C pre-/postemergence test; format: in vivo, Cynodon dactylon
How it was run: as §2

Goosegrass = test: Test C pre-/postemergence test; format: in vivo, Eleusin indica
How it was run: as §2

morningglory [4] = test: Test C pre-/postemergence test; format: in vivo, Ipomoea coccinea
How it was run: as §2

yellow nutsedge = test: Test C pre-/postemergence test; format: in vivo, Cyperus esculentus
How it was run: as §2

pigweed = test: Test C pre-/postemergence test; format: in vivo, Amaranthus retroflexus
How it was run: as §2

soybean = test: Test C pre-/postemergence test; format: in vivo, Glycine max
How it was run: as §2

[5] = tested on: common (oilseed) sunflower; test: Test C pre-/postemergence test; format: in vivo, Helianthus annuus
How it was run: as §2

umbrella sedge = test: Test C flooded paddy test; format: in vivo, Cyperus difformis; settings: Flood
How it was run: (§3)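 Ratings were visual and made relative to untreated controls after 13 to 15 greenhouse days.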

barnyardgrass = test: Test C flooded paddy test; format: in vivo, Echinochloa crus-galli; settings: Flood
How it was run: as §3

[6] = Postemergence, 500 g ai/ha, 0 is no effect, 100 is complete control
[7] = Preemergence, 125 g ai/ha, 0 no effect, 100 complete control
[8] = 62 g ai/ha, Preemergence, scale 0 to 100
[9] = 125 g ai/ha, preemergence, scale 0 (no effect) to 100 (complete control)
[10] = Preemergence, 31 g ai/ha, scale 0 to 100 (0 no effect, 100 complete control)
[11] = preemergence, 250 g ai/ha, scale 0 (no effect) to 100 (complete control)
[12] = 62 g ai/ha, scale 0 to 100 (0 no effect, 100 complete control)
[13] = 250 g ai/ha, scale 0 to 100, 0 no effect, 100 complete control, 13 to 15 days

Compound: Cn1nc(C(F)(F)F)c(CS(=O)(=O)c2cccc[n+]2[O-])c1OCC(F)F [Compound 81]
- Plant response rating, Crabgrass, Large (crabgrass; Postemergence, 125 g ai/ha): 50
- Crabgrass, Large plant response rating (crabgrass; [6]): 70
- Crabgrass, Large plant response rating (crabgrass; [7]): 80
- Plant response rating, Crabgrass, Large (crabgrass; Preemergence, 500 g ai/ha): 100
- Plant response rating, Foxtail, Giant (giant foxtail; Postemergence, 125 g ai/ha): 80
- Foxtail, Giant plant response rating (giant foxtail; [6]): 80
- Foxtail, Giant plant response rating (giant foxtail; [7]): 90
- Plant response rating, Foxtail, Giant (giant foxtail; Preemergence, 500 g ai/ha): 100
- Plant response rating, Morningglory (morningglory [1]; Postemergence, 125 g ai/ha): 30
- Morningglory plant response rating (morningglory [1]; [6]): 50
- Morningglory plant response rating (morningglory [1]; [7]): 0
- Plant response rating, Morningglory (morningglory [1]; Preemergence, 500 g ai/ha): 80
- Plant response rating, Wheat (wheat [2]; Postemergence, 125 g ai/ha): 20
- Wheat plant response rating (wheat [2]; [6]): 60
- Wheat plant response rating (wheat [2]; [7]): 10
- Plant response rating, Wheat (wheat [2]; Preemergence, 500 g ai/ha): 80
- Plant response rating, Corn (corn; Postemergence, 125 g ai/ha): 0
- Corn plant response rating (corn; [6]): 50
- Corn plant response rating (corn; [7]): 30
- Plant response rating, Corn (corn; Preemergence, 500 g ai/ha): 70
- Ryegrass, Italian plant response rating (Italian ryegrass; [8]): 0
- Ryegrass, Italian plant response rating (Italian ryegrass; [9]): 50
- Plant response rating, Ryegrass, Italian (Italian ryegrass; [10]): 0
- Ryegrass, Italian plant response rating (Italian ryegrass; [11]): 100
- Wheat plant response rating (wheat [3]; [8]): 5
- Wheat plant response rating (wheat [3]; [9]): 80
- Plant response rating, Wheat (wheat [3]; [10]): 0
- Wheat plant response rating (wheat [3]; [11]): 80
- Bermudagrass plant response rating (bermudagrass; 62 g ai/ha, Preemergence, scale 0 to 100 (0 no effect, 100 complete control)): 100
- Bermudagrass plant response rating (bermudagrass; [9]): 100
- Plant response rating, Bermudagrass (bermudagrass; [10]): 80
- Bermudagrass plant response rating (bermudagrass; [11]): 100
- Goosegrass plant response rating (Goosegrass; [8]): 98
- Goosegrass plant response rating (Goosegrass; [9]): 100
- Plant response rating, Goosegrass (Goosegrass; [10]): 55
- Goosegrass plant response rating (Goosegrass; [11]): 100
- Morningglory plant response rating (morningglory [4]; [8]): 0
- Morningglory plant response rating (morningglory [4]; [9]): 85
- Plant response rating, Morningglory (morningglory [4]; [10]): 0
- Morningglory plant response rating (morningglory [4]; [11]): 85
- Nutsedge, Yellow plant response rating (yellow nutsedge; [8]): 70
- Nutsedge, Yellow plant response rating (yellow nutsedge; [9]): 85
- Plant response rating, Nutsedge, Yellow (yellow nutsedge; [10]): 50
- Nutsedge, Yellow plant response rating (yellow nutsedge; [11]): 98
- Pigweed plant response rating (pigweed; [8]): 98
- Pigweed plant response rating (pigweed; [9]): 100
- Plant response rating, Pigweed (pigweed; [10]): 0
- Pigweed plant response rating (pigweed; [11]): 100
- Soybean plant response rating (soybean; [8]): 0
- Soybean plant response rating (soybean; [9]): 100
- Plant response rating, Soybean (soybean; [10]): 0
- Soybean plant response rating (soybean; [11]): 100
- Sunflower plant response rating [5, 8]: 0
- Sunflower plant response rating [5, 9]: 50
- Plant response rating, Sunflower [5, 10]: 0
- Sunflower plant response rating [5, 11]: 75
- Plant response rating, Sedge, Umbrella (umbrella sedge; [12]): 75
- Plant response rating, Sedge, Umbrella (umbrella sedge; [13]): 95
- Plant response rating, Barnyardgrass (barnyardgrass; [12]): 0
- Plant response rating, Barnyardgrass (barnyardgrass; [13]): 0
